Source: patent US20260014147A1, “STAT6 DEGRADERS” (Gilead Sciences, Inc., priority 2024, published 2026)

Experiments:
[1] = target: T1, STAT6 (endogenous, HiBiT-tagged) in HeLa LgBiT clone 4.14 cells (Homo sapiens, UniProt P42226); assay: STAT6 Degrader Assay (HiBiT based, HeLa LgBiT clone 4.14 cells, luminescence, DC50); type: cell-based; conditions: geometric mean; for DC50: DC50 provided for test compounds with >80% Emax, read-out: STAT6 degradation DC50; for Emax: Emax provided for test compounds with <80% Emax (and 2c15), read-out: STAT6 degradation Emax
T1 construct: These cells express endogenous STAT6; host or cells: HeLa LgBiT clone 4.14
T1 sequence (P42226 1-847): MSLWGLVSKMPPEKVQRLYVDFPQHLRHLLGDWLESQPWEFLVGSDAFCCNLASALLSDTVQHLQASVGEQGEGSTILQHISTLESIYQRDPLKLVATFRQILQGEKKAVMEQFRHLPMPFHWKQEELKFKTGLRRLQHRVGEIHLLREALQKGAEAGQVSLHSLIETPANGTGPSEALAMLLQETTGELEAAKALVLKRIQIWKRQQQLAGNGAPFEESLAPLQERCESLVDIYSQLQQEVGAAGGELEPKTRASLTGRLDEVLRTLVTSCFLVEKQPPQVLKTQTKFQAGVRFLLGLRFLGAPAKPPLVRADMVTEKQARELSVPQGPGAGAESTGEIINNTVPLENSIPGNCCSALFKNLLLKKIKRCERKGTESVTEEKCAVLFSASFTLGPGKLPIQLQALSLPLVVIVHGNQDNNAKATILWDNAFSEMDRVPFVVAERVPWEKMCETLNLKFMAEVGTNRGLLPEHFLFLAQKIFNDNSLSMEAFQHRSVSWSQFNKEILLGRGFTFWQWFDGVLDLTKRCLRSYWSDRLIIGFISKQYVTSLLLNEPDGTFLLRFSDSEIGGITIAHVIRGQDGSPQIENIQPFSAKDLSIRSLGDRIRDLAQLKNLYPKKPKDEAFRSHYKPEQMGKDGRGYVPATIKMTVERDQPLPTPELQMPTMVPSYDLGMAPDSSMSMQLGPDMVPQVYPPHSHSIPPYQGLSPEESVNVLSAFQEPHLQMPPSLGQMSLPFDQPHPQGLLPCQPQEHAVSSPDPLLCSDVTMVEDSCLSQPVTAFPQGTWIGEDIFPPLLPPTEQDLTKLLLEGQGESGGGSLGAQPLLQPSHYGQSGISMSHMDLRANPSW
Summary of the method: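 Remaining STAT6 is read as NanoBiT luminescence after 0.5 h with Nano-Glo, in HeLa LgBiT clone 4.14 cells expressing endogenous HiBiT-tagged STAT6, following 4-24 h compound incubation at 37 °C. Full degradation is set by 50 µM terfenadine, which kills the cells; degradation plotted against log compound concentration.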

[2] = system: Eotaxin-3 (CCL26) release in human whole blood stimulated with IL-4; assay: Human Whole Blood Eotaxin-3 Assay (IL-4 stimulated, inhibition of eotaxin-3 release); type: cell-based; conditions: Homo sapiens, EC50 provided for test compounds with >80% Emax, geometric mean across assay runs and batches
Summary of the method: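 Lithium-heparin human whole blood preincubated 2 h at 37 °C with compounds (4-fold serial dilution, triplicate, 0.5% DMSO final), then stimulated with 400 pM IL-4 for 48 h. Eotaxin-3 (CCL26) in supernatant quantified by MSD immunoassay.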

| DC50 [1] [nM] | EC50 [2] [nM] | Emax [1] [%] | Compound |
| --- | --- | --- | --- |
| 6.8 | 37 | – | C[C@@H]1CN(c2ccc(NC3CCC(=O)NC3=O)cc2F)CCN1CC1CCN(C(=O)c2ccc(C3CCN([C@@H](C)c4cc5c(-c6ccc(N)nc6)ccnc5n4C)CC3)cc2)CC1 (stereo partly drawn) [Example 2f2, 3-((4-((R)-4-((1-(4-(1-((S)-1-(4-(6-aminopyridin-3-yl)-1-methyl-1H-pyrrolo[2,3-b]pyridin-2-yl)ethyl)piperidin-4-yl)benzoyl)piperidin-4-yl)methyl)-3-methylpiperazin-1-yl)-3-fluorophenyl)amino)-piperidine-2,6-dione] |
| – | 118 | 60 to 70 | C[C@@H](c1cc2c(-c3ccc(N)nc3)ccnc2n1C)N1CCC(c2ccc(C(=O)N3CCC(CN4CCC(c5ccc(NC6CCC(=O)NC6=O)cc5F)C(F)(F)C4)CC3)cc2)CC1 (stereo partly drawn) [Example 2m2, 3-((4-(1-((1-(4-(1-((S)-1-(4-(6-aminopyridin-3-yl)-1-methyl-1H-pyrrolo[2,3-b]pyridin-2-yl)-ethyl)piperidin-4-yl)benzoyl)piperidin-4-yl)methyl)-3,3-difluoropiperidin-4-yl)-3-fluorophenyl)amino)-piperidine-2,6-dione] |
| – | 141 | 70 to 80 | C[C@@H](c1cc2c(-c3ccc(N)nc3)ccnc2n1C)N1CCC(c2ccc(C(=O)N3CCC(CN4CCN(c5ccc(NC6CCC(=O)NC6=O)c(F)n5)CC4)CC3)cc2)CC1 (stereo partly drawn) [Example 2n9, 3-((6-(4-((1-(4-(1-((S)-1-(4-(6-aminopyridin-3-yl)-1-methyl-1H-pyrrolo[2,3-b]pyridin-2-yl)-ethyl)-piperidin-4-yl)benzoyl)piperidin-4-yl)methyl)piperazin-1-yl)-2-fluoropyridin-3-yl)amino)piperidine-2,6-dione] |
| – | 131 | 70 to 80 | C[C@@H](c1cc2c(-c3ccc(N)nc3)ccnc2n1C)N1CCC(c2ccc(C(=O)N3CCC(CN4CCN(c5ncc(NC6CCC(=O)NC6=O)cc5F)CC4)CC3)cc2)CC1 (stereo partly drawn) [Example 2n10, 3-((6-(4-((1-(4-(1-((S)-1-(4-(6-aminopyridin-3-yl)-1-methyl-1H-pyrrolo[2,3-b]pyridin-2-yl)ethyl)-piperidin-4-yl)benzoyl)piperidin-4-yl)methyl)piperazin-1-yl)-5-fluoropyridin-3-yl)amino)-piperidine-2,6-dione] |
| – | 40.9 | 70 to 80 | COCc1nc2cc(-c3ccnc4c3cc([C@H](C)N3CCC(c5ccc(C(=O)N6CCC(CN7CCN(c8ncc(NC9CCC(=O)NC9=O)cc8F)CC7)CC6)cc5)CC3)n4C)ccc2[nH]1 (stereo partly drawn) [Example 2n12, 3-((5-fluoro-6-(4-((1-(4-(1-((S)-1-(4-(2-(methoxymethyl)-1H-benzo[d]imidazol-5-yl)-1-methyl-1H-pyrrolo[2,3-b]pyridin-2-yl)ethyl)piperidin-4-yl)benzoyl)piperidin-4-yl)methyl)piperazin-1-yl)pyridin-3-yl)amino)piperidine-2,6-dione] |
| 2.7 | 11.3 | – | Cn1c(CN2CCC(c3ccc(C(=O)N4CCn5nc(CN6CCC(c7ccc(NC8CCC(=O)NC8=O)cc7F)CC6)cc5C4)cc3)CC2)cc2c(-c3ccc4[nH]ncc4c3)ccnc21 (centres unmarked) [Example 2q3, 3-((4-(1-((5-(4-(1-((4-(1H-indazol-5-yl)-1-methyl-1H-pyrrolo[2,3-b]pyridin-2-yl)methyl)-piperidin-4-yl)benzoyl)-4,5,6,7-tetrahydropyrazolo[1,5-a]pyrazin-2-yl)methyl)piperidin-4-yl)-3-fluorophenyl)amino)piperidine-2,6-dione] |
| – | 73.5 | 70 to 80 | Cn1c(CN2CCC(c3ccc(C(=O)N4CCn5nc(CN6CCC(c7ccc(NC8CCC(=O)NC8=O)cc7F)CC6)cc5C4)cc3)CC2)cc2c(-c3ccc(N)nc3)ccnc21 (centres unmarked) [Example 2q4, 3-((4-(1-((5-(4-(1-((4-(6-aminopyridin-3-yl)-1-methyl-1H-pyrrolo[2,3-b]pyridin-2-yl)methyl)-piperidin-4-yl)benzoyl)-4,5,6,7-tetrahydropyrazolo[1,5-a]pyrazin-2-yl)methyl)piperidin-4-yl)-3-fluoro-phenyl)amino)piperidine-2,6-dione] |
| 1 | 2.3 | – | C[C@@H](c1cc2c(-c3ccc(N)nc3)ccnc2n1C)N1CCC(c2ccc(C(=O)N3CCn4nc(CN5CCC(c6ccc(NC7CCC(=O)NC7=O)cc6F)CC5)cc4C3)cc2)CC1 (stereo partly drawn) [Example 2q5, 3-((4-(1-((5-(4-(1-((S)-1-(4-(6-aminopyridin-3-yl)-1-methyl-1H-pyrrolo[2,3-b]pyridin-2-yl)ethyl)-piperidin-4-yl)benzoyl)-4,5,6,7-tetrahydropyrazolo[1,5-a]pyrazin-2-yl)methyl)piperidin-4-yl)-3-fluorophenyl)-amino)piperidine-2,6-dione] |
| 5.6 | 19.9 | – | C[C@@H](c1cc2c(-c3ccc(N)nc3)ccnc2n1C)N1CCC(c2ccc(C(=O)N3CCn4nc(CN5CCC(c6ncc(NC7CCC(=O)NC7=O)cc6F)CC5)cc4C3)cc2)CC1 (stereo partly drawn) [Example 2q6, 3-((6-(1-((5-(4-(1-((S)-1-(4-(6-aminopyridin-3-yl)-1-methyl-1H-pyrrolo[2,3-b]pyridin-2-yl)ethyl)-piperidin-4-yl)benzoyl)-4,5,6,7-tetrahydropyrazolo[1,5-a]pyrazin-2-yl)methyl)piperidin-4-yl)-5-fluoropyridin-3-yl)amino)piperidine-2,6-dione] |
| 2.6 | 2.4 | – | COCc1nc2cc(-c3ccnc4c3cc(CN3CCC(c5ccc(C(=O)N6CCn7nc(CN8CCC(c9ccc(NC%10CCC(=O)NC%10=O)cc9F)CC8)cc7C6)cc5)CC3)n4C)ccc2[nH]1 (centres unmarked) [Example 2q7, 3-((3-fluoro-4-(1-((5-(4-(1-((4-(2-(methoxymethyl)-1H-benzo[d]imidazol-5-yl)-1-methyl-1H-pyrrolo[2,3-b]pyridin-2-yl)methyl)piperidin-4-yl)benzoyl)-4,5,6,7-tetrahydropyrazolo[1,5-a]pyrazin-2-yl)-methyl)piperidin-4-yl)phenyl)amino)piperidine-2,6-dione] |
| 2.9 | 26.7 | – | C[C@@H](c1cc2c(-c3ccc(N)nc3)ccnc2n1C)N1CCC(c2ccc(C(=O)N3CCn4nc(CN5CCC(c6ccc(NC7CCC(=O)NC7=O)cc6F)C(F)(F)C5)cc4C3)cc2)CC1 (stereo partly drawn) [Example 2q9, 3-((4-(1-((5-(4-(1-((S)-1-(4-(6-aminopyridin-3-yl)-1-methyl-1H-pyrrolo[2,3-b]pyridin-2-yl)-ethyl)piperidin-4-yl)benzoyl)-4,5,6,7-tetrahydropyrazolo[1,5-a]pyrazin-2-yl)methyl)-3,3-difluoro-piperidin-4-yl)-3-fluorophenyl)amino)piperidine-2,6-dione] |
| 24.7 | 86.7 | – | C[C@@H](c1cc2c(-c3ccc(N)nc3)ccnc2n1C)N1CCC(c2ccc(C(=O)N3CCn4nc(CN5CCN(c6ncc(NC7CCC(=O)NC7=O)cc6F)CC5)cc4C3)cc2)CC1 (stereo partly drawn) [Example 2q14, 3-((6-(4-((5-(4-(1-((S)-1-(4-(6-aminopyridin-3-yl)-1-methyl-1H-pyrrolo[2,3-b]pyridin-2-yl)ethyl)-piperidin-4-yl)benzoyl)-4,5,6,7-tetrahydropyrazolo[1,5-a]pyrazin-2-yl)methyl)piperazin-1-yl)-5-fluoropyridin-3-yl)amino)piperidine-2,6-dione] |
| 6 | 59.5 | – | COCc1nc2cc(-c3ccnc4c3cc([C@H](C)N3CCC(c5ccc(C(=O)N6CCC(CN7CCN(c8ncc(NC9CCC(=O)NC9=O)cc8F)C[C@H]7C)CC6)cc5)CC3)n4C)ccc2[nH]1 (some centres unmarked) [Example 3t5] |
